Assay results published in US20220087983A1, “ACTIVATING PYRUVATE KINASE R” (FORMA Therapeutics, Inc., priority 2020, published 2022).
pIC50: −log10 of the molar value. Where “and” joins values, the source holds several entries; their conditions need not be identical. Equal values may be shown once.

Tests used:
[1] = tested on: ATP blood levels; assay: Phase 1: blood ATP levels in healthy volunteers (LC-MS/MS); format: in vivo, human; details: for Mean maximum percent change from baseline in ATP: all doses and timepoints
Method: (§1) In this study, SAD/MAD cohorts are randomized (3 to 1) to receive Compound 1 or placebo (P). Compound 1 was evaluated first in 4 healthy SAD cohorts and 4 healthy MAD (14-day dosing period) cohorts. Based on the safety, and PK/PD profile from HS, Compound 1 is then evaluated in 1 SCD SAD cohort and 2 SCD MAD cohorts. Specifically, based on the safety and pharmacokinetic/pharmacodynamics (PK/PD) profile in healthy volunteer studies, Compound 1 is evaluated in patients (pts) with SCD, first in a single dose (SD or SAD) cohort and then in multiple-dose (MD or MAD) cohorts (14-day and 12-week). Safety assessments include AEs, vital signs, ECGs and laboratory parameters. PK/PD blood sampling was performed on Day 1 (SAD/MAD) and Day 14 (MAD) and up to 72 h after the last dose and at the end-of-study visit. PD parameters included 2,3-DPG, ATP, and p50 in all cohorts with additional PD studies (including oxygen scan) performed only in the SCD cohorts. PD parameters included 2,3-DPG, ATP, p50, RBC deformability with controlled deoxygenation and reoxygenation (Lorrca® oxygen scan) and varying osmolality (Lorrca® osmoscan)). To maintain study blind, pt identifiers were removed when needed.
In the MAD cohorts, the subjects' blood ATP levels were measured […] by a qualified LC-MS/MS method for the quantitation of ATP in blood. […] Table 20A reports the median percentage change in blood ATP levels, relative to baseline, measured over time after the first dose on days 1 and 14 in healthy volunteers who received daily doses of Compound 1 (100 mg BID, 200 mg BID, 300 mg BID, or 400 mg QD) or placebo for 14 days. Table 20B reports the mean percentage change in ATP blood levels, relative to baseline, measured over time after the first dose on days 1 and 14 in healthy volunteers who received daily doses of Compound 1 (100 mg BID, 200 mg BID, 300 mg BID, or 400 mg QD) for 14 days.
The following procedures are employed for the analysis of ATP and 2,3-DPG in human whole blood K2EDTA using a protein precipitation extraction procedure and analysis by LC-MS/MS. […]

[2] = target: T1, CYP1A2 (Homo sapiens, UniProt P05177); assay: Single substrate DDI assay, reversible CYP inhibition in human liver microsomes; format: in vitro ADME
T1 construct: from tissue; host or cells: human liver microsomes
T1 sequence (P05177 1-516): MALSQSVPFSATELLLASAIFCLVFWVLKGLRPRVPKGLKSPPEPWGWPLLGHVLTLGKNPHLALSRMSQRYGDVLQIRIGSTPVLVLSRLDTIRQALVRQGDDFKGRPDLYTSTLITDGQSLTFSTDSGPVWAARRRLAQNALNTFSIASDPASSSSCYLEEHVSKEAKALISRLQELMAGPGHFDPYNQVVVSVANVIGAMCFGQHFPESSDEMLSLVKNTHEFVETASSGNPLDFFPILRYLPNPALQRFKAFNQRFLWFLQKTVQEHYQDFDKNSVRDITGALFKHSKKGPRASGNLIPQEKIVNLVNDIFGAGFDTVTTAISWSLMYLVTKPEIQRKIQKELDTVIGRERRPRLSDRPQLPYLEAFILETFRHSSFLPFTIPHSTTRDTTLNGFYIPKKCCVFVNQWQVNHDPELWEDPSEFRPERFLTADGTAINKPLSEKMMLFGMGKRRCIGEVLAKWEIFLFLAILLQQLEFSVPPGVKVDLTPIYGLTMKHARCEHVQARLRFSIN

[3] = tested on: 2,3-DPG blood levels; assay: Phase 1: blood 2,3-DPG levels in SCD patients; format: in vivo, human
Method: as §1, with “PD parameters included 2,3-DPG, ATP, p50, RBC deformability with controlled deoxygenation and reoxygenation (Lorrca® oxygen scan) and varying osmolality (Lorrca® osmoscan)). To maintain study blind, pt identifiers were removed when needed.” left out
The following table reports the mean percentage change in 2,3-DPG blood levels, relative to baseline, measured over time in SCD patients after a single dose of Compound 1 (700 mg):
The following table reports the mean percentage change in 2,3-DPG blood levels, relative to baseline, measured over time after the first dose on days 1 and 14 in SCD patients who received daily doses of Compound 1 (300 mg QD) for 14 days: […]

[4] = tested on: CYP3A4; assay: CYP mRNA induction in cultured human hepatocytes; format: in vitro ADME; details: donors, HCS-40 individually
[5] = target: T2, CYP2D6 (Homo sapiens, UniProt P10635); assay: Single substrate DDI assay, reversible CYP inhibition in human liver microsomes; format: in vitro ADME
T2 construct: from tissue; host or cells: human liver microsomes

[6] = tested on: CYP2B6; assay: CYP mRNA induction in cultured human hepatocytes; format: in vitro ADME; details: donors AIH, EUJ, HC5-40 individually

T2 sequence (P10635 whole entry): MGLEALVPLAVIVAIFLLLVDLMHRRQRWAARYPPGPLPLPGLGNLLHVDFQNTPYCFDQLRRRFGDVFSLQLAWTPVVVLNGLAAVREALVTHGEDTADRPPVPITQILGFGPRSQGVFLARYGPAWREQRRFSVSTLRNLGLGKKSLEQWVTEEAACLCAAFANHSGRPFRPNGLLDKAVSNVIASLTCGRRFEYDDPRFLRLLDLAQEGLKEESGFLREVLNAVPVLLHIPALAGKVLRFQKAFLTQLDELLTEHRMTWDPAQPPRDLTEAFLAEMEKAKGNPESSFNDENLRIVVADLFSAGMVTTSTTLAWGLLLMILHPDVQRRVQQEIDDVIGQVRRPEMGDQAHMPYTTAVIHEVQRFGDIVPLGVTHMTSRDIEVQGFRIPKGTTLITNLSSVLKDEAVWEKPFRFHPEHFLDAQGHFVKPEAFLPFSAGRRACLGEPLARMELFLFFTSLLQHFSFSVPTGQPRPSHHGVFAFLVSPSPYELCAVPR

In the case of `O=C([C@H](CO)c1ccccc1)N1CC2=C(C1)CN(S(=O)(=O)c1cnc3c(c1)OCCO3)C2` (single isomer, unassigned) [Compound 1], the “Mean maximum percent change from baseline in ATP” value ([1]; HV MAD, N = 36) was 68.5%, the “Mean maximum percent change from baseline in ATP” value ([1]; HV SAD, N = 24) was 24.4% and the “lag of maximum ATP increase behind maximum plasma concentration” value ([1]; HV, single 200-1000 mg dose) was “at least 24 hours”. The pIC50 [2] was under 4.52, the “Mean percentage change in 2,3-DPG blood levels” value ([3]; SCD patients, single dose 700 mg, 0 h after dose) was −0% and the “lag of maximum 2,3-DPG decrease behind maximum plasma concentration” value ([3]; SCD, single 700 mg dose (FIG. 54B)) was “about 24 hours”. The “mRNA Fold Induction CYP3A4” value ([4]; 0.033 μM) was 0.940 fold and 1.09 fold and 1.25 fold, the “mRNA Fold Induction CYP3A4” value ([4]; 0.1 μM) was 1.13 fold and 0.875 fold and 0.889 fold and the “mRNA Fold Induction CYP3A4” value ([4]; 0.33 μM) was 1.11 fold and 1.18 fold and 0.836 fold. The “mRNA Fold Induction CYP3A4” value ([4]; 1 μM) was 1.41 fold and 1.07 fold and 1.18 fold, the “mRNA Fold Induction CYP3A4” value ([4]; 3.3 μM) was 1.84 fold and 1.25 fold and 1.62 fold and the “mRNA Fold Induction CYP3A4” value ([4]; 10 μM) was 3.60 fold and 2.23 fold and 1.29 fold. For the same molecule, the pIC50 [5] was under 4.52, the “mRNA Fold Induction CYP2B6” value ([6]; 0.033 μM) was 1.17 fold and the “mRNA Fold Induction CYP2B6” value ([6]; 0.1 μM) was 1.23 fold and 1.06 fold. For the same molecule, the “mRNA Fold Induction CYP2B6” value ([6]; 0.33 μM) was 1.10 fold and 0.964 fold, the “mRNA Fold Induction CYP2B6” value ([6]; 1 μM) was 1.29 fold and the “mRNA Fold Induction CYP2B6” value ([6]; 3.3 μM) was 1.24 fold. For the same molecule, the “mRNA Fold Induction CYP2B6” value ([6]; 10 μM) was 1.43 fold and 1.21 fold, the fold induction at 1 µM ([6]; human, 1 μM) was 1.07 and the fold induction at 3.3 µM ([6]; human, 3.3 μM) was 1.25. For the same molecule, the fold induction at 0.033 µM ([6]; human, primary cultured human hepatocytes, 0.033 μM) was 0.982, the fold induction at 0.1 µM ([6]; human, primary cultured human hepatocytes, 0.1 μM) was 1.01 and the fold induction at 0.33 µM ([6]; human, primary cultured human hepatocytes, 0.33 μM) was 1. It also gave a fold induction at 1 µM ([6]; human, primary cultured human hepatocytes, 1 μM) of 1, a fold induction at 3.3 µM ([6]; human, primary cultured human hepatocytes, 3.3 μM) of 1.26 and a fold induction at 10 µM ([6]; human, primary cultured human hepatocytes, 10 μM) of 1.7.
